Data on 1 molecule can be found in publication PMC8557901 (Microbiology Spectrum, 2021).

Data set [1] relates to P. falciparum F32-TEM (artemisinin-sensitive). The experiment in a line: Standard in vitro chemosensitivity assay (hypoxanthine uptake), F32-TEM. The class given is cell-based. To be noted: Plasmodium falciparum, F32, 48 h, read-out: Mean EC50 ± SD. As for the experimental part: The Plasmodium falciparum artemisinin-resistant strain F32-ART5 and its twin artemisinin-sensitive line F32-TEM ([30], [31]) were cultivated at 37°C with 5% CO2 in human red blood cells (EFS [French Blood Bank]) diluted to 2% hematocrit in RPMI 1640 medium supplemented with 5% human serum (EFS) as previously reported ([47]).
In vitro susceptibility of P. falciparum parasites was determined by using the standard hypoxanthine uptake inhibition assay as described previously ([51]) with some modifications ([52]). After D-sorbitol treatment, parasites synchronized at the ring stage were exposed for 48 h, with [^3H]hypoxanthine (Perkin Elmer, France), to a range of concentrations of the different tested compounds. […] Each result represents 3 independent experiments.

Data set [2] is described as follows: MTT cell viability assay, human primary hepatocytes. The data set is classed as cell-based. From the text:
Primary human hepatocytes were isolated from liver segments obtained from adult patients undergoing partial hepatectomy (Service de Chirurgie Digestive, Hépato-Bilio Pancréatique, Hôpital Pitié Salpêtrière, Paris, France). Primary simian hepatocytes were isolated from liver segments collected from healthy Macaca fascicularis monkeys from CEA, Fontenay aux Roses, France. All hepatocytes were obtained using collagenase perfusion as previously described ([40]). Simian hepatocytes were immediately cryopreserved with a Nicool-Freezal controlled rate freezer (Air Liquide Santé, Marne la Vallée, France) and then used when needed after fast thawing at 37°C. Primary murine hepatocytes were isolated from liver segments collected from BALB/c mice. Human and murine hepatocytes were used directly after their isolation. Cells were seeded in 96-well plates (Falcon; Becton Dickinson Labware Europe, France) coated with collagen I (BD Bioscience, USA) at a density of 80,000 cells per well. […]
The toxicity of M1 toward primary hepatocytes and HepG2-CD81 cells was evaluated through the MTT {[3-(4,5-dimethyl-2-thiazolyl)-2,5-diphenyl-2H-tetrazolium bromide]} test ([42]). […] Then, MTT was replaced by a mixture of DMSO-ethanol (1:1) to dissolve formazan crystals and the absorbance was read at 540 nm on a FlexStation plate reader.
Background: Tetrazolium dyes change colour on reduction, which living cells bring about.

For data set [3], the system named is P. falciparum sporozoites invading primary human hepatocytes. The data set is described as follows: Hepatocyte invasion by preincubated P. falciparum sporozoites. To be noted: Plasmodium falciparum, Hepatocyte, in Homo sapiens, sporozoites preincubated 1 h; for inhibition at 1 µM: read-out: inhibition of invasion of sporozoites into hepatocytes, 1 μM; for inhibition at 10 µM: read-out: inhibition of invasion of sporozoites into hepatocytes, 10 μM; for inhibition at 100 µM: read-out: inhibition of invasion of sporozoites into hepatocytes, 100 μM. As for the experimental part:
On the day of infection, 3 · 10^4 sporozoites of P. falciparum, P. yoelii, and P. cynomolgi were added to their respective host cell cultures (human, murine, and simian). The infected culture plates were centrifuged for 10 min at 900 × g, allowing fast parasite sedimentation, and further incubated with serial dilutions of M1. Culture medium containing the appropriate drug concentration was refreshed daily, and cells were fixed at 48 h postinfection (p.i.) for infections with P. yoelii, 6 days p.i. for P. falciparum, or 8 days p.i. for P. cynomolgi. For the in vitro sporozoite invasion experiments, P. falciparum sporozoites were preincubated with 1, 10, and 100 μM M1 for 1 h at room temperature before hepatocyte infections. Three hours later, after sporozoite penetration into hepatocytes, cultures were washed and then further incubated with or without the presence of the drug during 6 days. DMSO was used as a negative control.
The number, size, and shape of the parasites were determined using a CellInsight high-content screening platform equipped with Studio HCS software (ThermoFisher Scientific). […] Host cell and parasite nuclei were labeled with DAPI (4′,6-diamidino-2-phenylindole). […] The custom script used for counting and measuring parasites first required identification of the objects based on a fluorescence intensity threshold. The object identity was then further validated based on size and morphological (shape) criteria. The presence of DAPI-associated fluorescence in the selected objects allowed their final selection and the rejection of false positives. […] The parasitic size reduction was calculated on the average object area using the total surface area of each selected object (μm^2).

The mark [4] stands for this setting: cultures additionally treated until day 6.
[5] abbreviates: cultures then without drug for 6 days.

SMILES strings stand for the structures. Where two headings read alike, the source gives them in different places. A value given as a limit tells only on which side of the number the result lay.

Usually EC50 stands for the concentration that produces a half-maximal response. In general, CC50 refers to the concentration that lowers cell viability or growth by half. A higher CC50 goes with lower toxicity to the cells. The inhibition is the percentage by which the read-out fell short of the control. Regarding `Cc1ccc(-c2cc3nc(NC(C)(C)C)[nH]c(=O)c3s2)cc1` [Metabolite M1, 2-(tert-Butylamino)-6-(p-tolyl)thieno[3,2-d]pyrimidin-4(3H)-one], in data set [1], the EC50 was 283 ± 125 nM. The same molecule registered a 50% cytotoxic concentration (CC50) at 5 days in data set [2] of more than 60000 nM. For the same molecule, in data set [3] (setting [4]), the inhibition at 1 µM was 80%, the inhibition at 10 µM was 100% and the inhibition at 100 µM came to 100%. Besides, in data set [3] (setting [5]), the inhibition at 1 µM was determined as 30%, the inhibition at 10 µM came out at 60% and the inhibition at 100 µM is approximately 100%.
